Measured values taken from patent US12116461B2, “Host-guest interactions for pa superstructure formation” (Northwestern University, priority 2020, dated 2024).
Where a SMILES comes first, the peptide text is derived from it. The star is where a group is joined. Palmitoyl = CCCCCCCCCCCCCCCC(=O)*

How the values were obtained:
[1] = 1H-NMR titration, association constant of β-cyclodextrin with 1-adamantaneacetic acid; conditions: 1:1 host-guest binding model; 125 mM NaCl, 3 mM KCl buffer pH 7.2-7.4, 25° C.
Protocol: The association constant for the binding between 1-adamantaneacetic acid and β-cyclodextrin was measured in 125 mM NaCl and 3 mM KCl buffer at pH 7.2-7.4. In a typical titration experiment, small amounts of a “guest solution” (100 mM 1-adamantaneacetic acid and 3.5 mM β-cyclodextrin in deuterated buffer) were added to approximately 0.8 ml of “host solution” (3.5 mM β-cyclodextrin in deuterated buffer) until at least 5 equiv of “guest” molecules were added. 1H-NMR spectra were obtained at 25° C. upon each addition of the “guest” solution and a binding isotherm was constructed by monitoring the protons on 1-adamantaneacetic acid.
The binding isotherms were fit to a standard 1:1 host-guest binding model (Eq. 1-3) where [HG] is the concentration of host-guest complex, [H]0 is the total concentration of “host” molecules, [G]0 is the total concentration of “guest” molecules, do is the proton peak position at [HG]/[H]0=0, δ is the proton peak position measured at different values of [HG]/[H]0, and δ∞ is a fitting parameter. All spectra were obtained with a X500 Bruker Avance III HD system equipped with a TXO Prodigy probe and analyzed with the MestreNova (Mestrelab Research) software.

[2] = Rheological measurement of storage modulus; format: physicochemical; conditions: no free adamantane added
Protocol: (§1) PA materials were prepared and annealed using methods described in section 2.1.1. An Anton Paar MCR302 Rheometer with a 25 mm cone plate was used for all rheological studies. 150 μL of PA liquid was placed on the sample stage. For experiments using Free Adamantane, 30 μL of either 1 mM or 2 mM adamantane solution (prepared as described in section 2.1.3) was added in droplets to the top plunger. The plunger was then lowered to the measuring position and a humidity collar was added during the “sample trim” phase to prevent sample evaporation during the measurement. The sample was equilibrated for 30 minutes with a constant angular frequency of 10 rad/s and 0.1% strain. The storage and loss modulus were recorded. For thixotropy studies, the sample was applied to the stage as previously mentioned. The first and third interval consisted of 10, 6 second points with an oscillating shear strain of 0.1% and angular frequency of 10 rad/s. The storage and loss modulus were plotted against time. The second interval consisted of 10, 1 second points with a constant shear rate of 100 s^−1. The viscosity was plotted against time. For recovery experiments, G′ and G″ were measured during alternating intervals of low and high strain. The low strain interval was 200 seconds at 0.5% strain and the high strain interval was 50 seconds at 50% strain.

[3] = Thixotropy interval study (before/after high shear); format: physicochemical
Protocol: as §1

Structure (SMILES) | association constant (Ka) [1] [M⁻¹] | storage modulus (G′) [2] [Pa] | G′ after high shear ([3]; after high shear) [Pa] | G′ before high shear ([3]; before high shear) [Pa]
OC[C@H]1O[C@@H]2O[C@H]3[C@H](O)[C@@H](O)[C@@H](O[C@H]4[C@H](O)[C@@H](O)[C@@H](O[C@H]5[C@H](O)[C@@H](O)[C@@H](O[C@H]6[C@H](O)[C@@H](O)[C@@H](O[C@H]7[C@H](O)[C@@H](O)[C@@H](O[C@H]8[C@H](O)[C@@H](O)[C@@H](O[C@H]1[C@H](O)[C@H]2O)O[C@@H]8CO)O[C@@H]7CO)O[C@@H]6CO)O[C@@H]5CO)O[C@@H]4CO)O[C@@H]3CO [β-cyclodextrin] | 395 | – | – | –
CCCCCCCCCCCCCCCC(=O)N[C@H](C(=O)N[C@H](C(=O)N[C@@H](C)C(=O)N[C@@H](C)C(=O)N[C@@H](CCC(=O)O)C(=O)N[C@@H](CCC(=O)O)C(N)=O)C(C)C)C(C)C [E2 PA, C16V2A2E2] (Palmitoyl-VVAAEE-NH2) | – | 20±12 | 26.8 | 43.9
